Measured values taken from patent publication US20240217969A1, “SUBSTITUTED PYRROLE CARBOXAMIDES, PROCESS FOR THEIR PREPARATION AND THEIR USE AS KINASE INHIBITORS” (priority 2021, published 2024).

Assays:
Cdc7 = Cdc7 (Homo sapiens, UniProt O00311); test: Cdc7 biochemical assay, ADPGlo assay format
Procedure: The biochemical activity of compounds was determined by incubation with specific enzymes and substrate, followed by quantification of the ADP product. Compounds were 4-fold serially diluted from 10 to 0.0006 uM; in the case of the pre-incubation step, the enzyme is added to the inhibitor solution and the mixture is left to incubate for 30 minutes at room temperature (r.t.). The reaction started with the addition of the substrate and the ATP, when the enzyme was already present in the preincubation step, or substrate, ATP and enzyme when the preincubation step was not present. The concentrations of ATP, substrate and reaction buffer are described above. The assays were run in a robotized format on 384-well plates. […] At the end of the incubation time, an equal volume of ADPGlo Reagent 1 (Promega) was added to stop the reaction and to remove all unreacted ATP. After 60 minutes, an equal volume of ADPGlo Reagent 2 (Promega) was added to convert ADP in ATP and then ATP in light by luciferase reaction.
y=bottom+(top−bottom)/(1+10^((log IC50−x)*slope))
where x is the logarithm of the inhibitor concentration, y is the response; y starts at bottom and goes to top with a sigmoid shape.

[1] = target: T1, aldehyde oxidases (human liver cytosol) (Homo sapiens, UniProt Q06278); assay type: in vitro ADME; conditions: human liver cytosol 1 mg/mL, 1 μM compound; for HLC % remaining (1 h incub.): 60 min incubation; for HLC % remaining (1 h incub.) / HLC T½ min: pH 7.4, 37° C.; for IntCl (Intrinsic Clearance): half-life approach
T1 construct: added to human liver cytosol (1 mg/mL protein content); from tissue; host or cells: human liver cytosol
Procedure: The aldehyde oxidases involvement in the metabolism of the test item was determined by comparison of the intrinsic clearance values in the presence and absence of aldehyde oxidases inhibitor hydralazine hydrochloride. The purpose of the study was to evaluate the in-vitro intrinsic clearance, the metabolic stability towards aldehyde oxidases (AO) activity and the metabolism of the test item in human liver cytosol. The intrinsic clearance was determined using the half-life approach, by measuring the substrate disappearance along 60 minutes incubation with human liver cytosol. Incubations were performed at the concentration of 1 μM. […] HPLC-MS/MS was used for the detection of the compound left over during the incubation. For intrinsic clearance determination samples were analyzed by high performance liquid chromatography (HPLC) on-line with mass spectrometry (MS) equipment. For the determination of aldehyde oxidases activity (i.e. positive control) of cytosol, phthalazine was incubated with human liver cytosol in presence and absence of the aldehyde oxidases inhibitor. On the day of the incubation, the compound was dissolved in DMSO at the concentration of 10 mM. Aliquots of this solution were added to the test system to a final concentration of […]. The percentage of DMSO in the final incubates was […]. Aliquots of the test item were added to human liver cytosol (1 mg/mL protein content) in Dulbecco's buffer, pH 7.4 at 37° C., to reach final concentration of 1 μM. Incubations were performed in a 48-well plate, under shaking. At 0, 5, 10, 20, 30 and 60 minutes incubation, 50 μL aliquots of the incubate were sampled, poured in 80 μL of ice-cold acetonitrile and 20 μL of 1 μM warfarin in acetonitrile (injection control) and centrifuged at 2500 rpm for 20 minutes. The supernatant was immediately analysed by LC-MS/MS.
The test item was incubated in parallel, in duplicate, at the concentration of 1 μM in Dulbecco's buffer, pH 7.4 for 60 min at 37° C. in the presence of 10 μM hydralazine hydrochloride (aldehyde oxidases inhibitor).
The chemical stability of the test item was checked in parallel by incubating the test item in single at the concentration of 1 μM in Dulbecco's buffer, pH 7.4 for 60 min at 37° C. (negative control).
The intrinsic clearance (CLint) was calculated using the half-life approach. Half-life and CLint were determined from the concentration (area counts) remaining at the different sampling points using the LC-MS/MS method. By plotting the natural logarithmic area of the compound remaining against the time, the slope was calculated by linear regression analysis and converted into the half-life (t½) and CLint expressed as μL/min/mg protein according to the following formulae: […]

T1 sequence (Q06278 whole entry): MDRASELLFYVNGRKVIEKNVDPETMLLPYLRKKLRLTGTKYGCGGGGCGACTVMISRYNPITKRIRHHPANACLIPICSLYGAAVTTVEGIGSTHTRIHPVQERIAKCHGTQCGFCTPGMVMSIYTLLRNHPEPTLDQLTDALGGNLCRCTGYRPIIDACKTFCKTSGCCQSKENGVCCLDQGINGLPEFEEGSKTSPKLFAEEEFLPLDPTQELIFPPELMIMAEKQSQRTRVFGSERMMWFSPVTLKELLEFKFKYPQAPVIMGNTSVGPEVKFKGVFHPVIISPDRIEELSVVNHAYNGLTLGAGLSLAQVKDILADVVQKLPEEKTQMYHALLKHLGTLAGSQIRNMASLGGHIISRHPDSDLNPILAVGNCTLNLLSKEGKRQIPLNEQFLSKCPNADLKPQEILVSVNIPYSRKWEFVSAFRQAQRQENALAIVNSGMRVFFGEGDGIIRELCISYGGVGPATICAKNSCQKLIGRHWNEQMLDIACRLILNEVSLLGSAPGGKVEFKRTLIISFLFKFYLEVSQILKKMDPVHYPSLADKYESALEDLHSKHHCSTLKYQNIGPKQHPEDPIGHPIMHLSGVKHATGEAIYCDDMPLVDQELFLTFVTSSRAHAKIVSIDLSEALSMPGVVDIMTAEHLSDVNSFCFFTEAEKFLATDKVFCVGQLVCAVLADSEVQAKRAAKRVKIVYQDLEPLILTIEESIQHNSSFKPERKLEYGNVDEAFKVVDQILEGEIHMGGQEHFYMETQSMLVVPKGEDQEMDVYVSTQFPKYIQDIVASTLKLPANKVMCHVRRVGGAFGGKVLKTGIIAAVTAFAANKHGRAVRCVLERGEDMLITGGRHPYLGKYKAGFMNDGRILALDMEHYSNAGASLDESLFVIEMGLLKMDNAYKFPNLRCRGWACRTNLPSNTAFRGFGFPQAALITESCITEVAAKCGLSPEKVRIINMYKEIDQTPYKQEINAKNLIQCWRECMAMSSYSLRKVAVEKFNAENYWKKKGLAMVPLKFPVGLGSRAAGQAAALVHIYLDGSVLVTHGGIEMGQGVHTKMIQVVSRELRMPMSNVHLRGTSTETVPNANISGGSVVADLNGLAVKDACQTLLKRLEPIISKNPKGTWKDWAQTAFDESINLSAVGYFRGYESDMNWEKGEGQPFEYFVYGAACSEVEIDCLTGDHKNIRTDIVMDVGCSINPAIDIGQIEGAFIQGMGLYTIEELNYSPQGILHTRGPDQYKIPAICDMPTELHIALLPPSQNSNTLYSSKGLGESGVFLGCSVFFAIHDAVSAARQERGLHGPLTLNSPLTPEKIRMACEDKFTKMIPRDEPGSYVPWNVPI
Chain of Cdc7 (O00311 whole entry): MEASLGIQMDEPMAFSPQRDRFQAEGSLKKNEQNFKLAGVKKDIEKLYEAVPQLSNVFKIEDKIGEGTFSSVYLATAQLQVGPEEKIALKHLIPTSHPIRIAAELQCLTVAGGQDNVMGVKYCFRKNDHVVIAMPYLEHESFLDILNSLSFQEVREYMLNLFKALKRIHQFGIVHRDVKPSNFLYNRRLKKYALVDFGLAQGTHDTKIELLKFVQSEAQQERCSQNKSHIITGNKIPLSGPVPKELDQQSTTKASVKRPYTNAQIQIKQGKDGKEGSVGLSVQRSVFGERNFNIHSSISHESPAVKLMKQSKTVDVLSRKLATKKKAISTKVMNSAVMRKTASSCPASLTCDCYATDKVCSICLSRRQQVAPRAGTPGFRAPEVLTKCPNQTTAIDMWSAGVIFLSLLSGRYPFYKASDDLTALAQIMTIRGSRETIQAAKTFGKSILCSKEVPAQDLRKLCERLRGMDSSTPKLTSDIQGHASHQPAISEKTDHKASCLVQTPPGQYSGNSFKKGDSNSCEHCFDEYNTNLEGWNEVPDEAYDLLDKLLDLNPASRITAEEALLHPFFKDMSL
Chain of Cdc7 (Q9UBU7 whole entry partner): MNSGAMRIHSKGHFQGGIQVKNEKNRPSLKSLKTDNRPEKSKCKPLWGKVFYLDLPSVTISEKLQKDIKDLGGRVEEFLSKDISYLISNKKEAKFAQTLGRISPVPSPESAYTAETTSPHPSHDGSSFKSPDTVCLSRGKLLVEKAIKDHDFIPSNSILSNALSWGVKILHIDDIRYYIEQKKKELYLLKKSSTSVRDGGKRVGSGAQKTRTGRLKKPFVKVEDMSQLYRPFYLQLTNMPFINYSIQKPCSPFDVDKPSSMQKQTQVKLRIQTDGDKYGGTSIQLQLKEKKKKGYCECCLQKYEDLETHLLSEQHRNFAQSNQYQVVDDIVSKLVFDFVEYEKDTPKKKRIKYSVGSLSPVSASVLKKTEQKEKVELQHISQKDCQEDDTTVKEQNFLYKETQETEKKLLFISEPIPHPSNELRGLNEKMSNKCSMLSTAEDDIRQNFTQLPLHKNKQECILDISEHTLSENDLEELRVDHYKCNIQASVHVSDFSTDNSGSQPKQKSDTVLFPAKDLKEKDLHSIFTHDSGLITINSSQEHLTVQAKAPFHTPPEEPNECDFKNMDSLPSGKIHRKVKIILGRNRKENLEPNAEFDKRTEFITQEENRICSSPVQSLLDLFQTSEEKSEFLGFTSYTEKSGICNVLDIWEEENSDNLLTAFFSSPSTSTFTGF

Row | SMILES | IC50 (Cdc7) | HLC % remaining (1 h incub.) [1] | IntCl (Intrinsic Clearance) [1] | HLC T½ min [1]
1 | NC(=O)c1cc(-c2ccnc3[nH]ccc23)[nH]c1-c1cccc(Cl)c1Cl [comp 7, 2-(2,3-dichlorophenyl)-5-(1H-pyrrolo[2,3-b]pyridin-4-yl)-1H-pyrrole-3-carboxamide] | 1 nM | 95% | 2.9 μL/min/mg protein | 3.98 h
2 | NC(=O)c1cc(-c2ccnc3[nH]ccc23)[nH]c1-c1cccc(Cl)c1F [comp 1, 2-(3-chloro-2-fluorophenyl)-5-(1H-pyrrolo[2,3-b]pyridin-4-yl)-1H-pyrrole-3-carboxamide] | 4 nM | 100% | 2.9 μL/min/mg protein | 3.98 h
3 | NC(=O)c1cc(-c2cc(N)ncn2)[nH]c1-c1ccc(Cl)cc1Cl [compound 42, 5-(6-aminopyrimidin-4-yl)-2-(2,4-dichlorophenyl)-1H-pyrrole-3-carboxamide] | 90 nM | 100% | 2.9 μL/min/mg protein | 3.98 h
